Assays:
[1] = system: prostate cancer cells (C42B); test: MTT cell viability assay, C42B; format: cell-based, human; details: for IC50: Homo sapiens, 72 hrs; for loss of cell viability: 72 hours, BQs 1.0-25.0 μM, relative to control (DMSO)
Procedure: (§1) Human cancer cell lines were purchased from Hyclone Laboratories, Utah, USA. Pancreatic cancer cells (L3.6pl and MiaPaCa-2) and breast cancer cells (MCF-7) were maintained in DMEM while lung cancer cells (H1299) and prostate cancer cells (C42B) were maintained in RPMI 1640 media. All media were supplemented with antibiotics (penicillin 50 U/ml; streptomycin 50 μg/ml) and 10% fetal bovine serum (FBS, Biowest, Nouaille, France).
(§2) BQs were tested for their antiprolifrative activity in vitro using MTT assay on human pancreatic cancer cells (L3.6pl and MiaPaCa-2), human lung cancer cells (H1299), human breast cancer cells (MCF-7) and human prostate cancer cells (C42B).
(§3) The cell viability test was conducted by seeding pancreatic (L3.6pl and MiaPaCa-2), lung (H1299), breast (MCF-7) and prostate (C42B) cancer cells into 96-well culture plates at a density of 3×10^3 cells per well. Cells were then exposed to increasing doses (0-25 μM) of BQs for 72 hrs and MTT assay was performed using thymoquinone as a positive control in all experiments. The results were plotted as means±SD of at least three separate experiments using six determinations per experiment. Data were presented as proportional viability (%) by comparing the treated group with the untreated cells whose viability is assumed to be 100%. IC50s of the BQs were estimated from the linear plots of concentrations versus cell viabilities.

[2] = system: telomeric G-quadruplex DNA; test: Melting temperature curves by CD, G-quadruplex-BQs complexes; format: binding, human; details: for Tm of G-quadruplex-BQ complex / ΔTm of G-quadruplex-BQ complex: CD, equimolar BQ, Tris-KCl buffer pH 7.4; for selectivity towards G-quadruplex over ct-DNA: from differences between ΔTm (G-quadruplex) and ΔTm (ct-DNA)
Procedure: (§4) Melting temperature curves for telomere G-quadruplex, ct-DNA and their BQs' adducts were constructed using CD spectral measurements. A 1.0 ml telomeric G-quadruplex (3.93×10^−6 M) or ct-DNA (100.00 ppm) in Tris-KCl-buffer, pH 7.4 was heated in the range 25-95° C. applying 2.0-5.0° C. increments and using 5 min incubation time intervals. The CD spectra in the range 200-400 nm were recorded at each temperature using the scan parameters described in previous section. BQs complexes with G-quadruplex or ct-DNA were prepared by mixing equimolar amounts of G-quadruplex (1.44×10^−4 M) with BQs (1×10^−4 M) or ct-DNA (1000 ppm) with BQs (1×10^−4 M) solution in 1.0 ml KCl-buffer pH 7.4. Solutions were incubated for 30 min before scan. Collected CD spectra were smoothed and baseline corrected against blank solution. Intensities of CD peaks for G-quadruplex, ct-DNA and their BQs' complexes at 293 and 282 nm were recorded. Plots of CD intensities versus temperature were constructed.

[3] = system: ct-DNA (calf thymus DNA); test: Melting temperature curves by CD, ct-DNA-BQs complexes; format: binding; details: Tris-KCl buffer pH 7.4
Procedure: Calf thymus ds-DNA (1000 μg/ml; 8×10^−8 M) was prepared by dissolving 10.0 mg of DNA into 10.0 ml Tris-KCl buffer, pH 7.4, without sonication or stirring. To prevent shearing of the large genomic DNA, the solution was gently inverted overnight at 4.0° C. to completely solubilize the DNA. Solutions of DNA are stable for several months at 4.0° C. in Tris-KCl buffer pH 7-8.
as §4, with “scan.” for “scan. Collected CD spectra were smoothed and baseline corrected against blank solution. Intensities of CD peaks for G-quadruplex, ct-DNA and their BQs' complexes at 293 and 282 nm were recorded. Plots of CD intensities versus temperature were constructed.”
Collected CD spectra were smoothed and baseline corrected against blank solution. Intensities of CD peaks for G-quadruplex, ct-DNA and their BQs' complexes at 293 and 282 nm were recorded. Plots of CD intensities versus temperature were constructed.

[4] = system: telomeric G-quadruplex DNA AGGG(TTAGGG)3; test: UV-Vis absorption titration, Scatchard plot and molar ratio method; format: binding, human; details: Scatchard plot of UV-Vis titration, Tris-KCl buffer pH 7.4
Procedure: Telomeric G-quadruplex DNA was prepared by heating gently 2.0 ml of stock single stranded 5′-[…]-3′ DNA (SEQ ID NO: 1) up to 95.0° C. Resultant solution was incubated at 95.0° C. for 10 min. The solution was left to cool gently down to room temperature, then kept in fridge at 4.0° C. overnight before use. A 10^−5 M fluorescein labeled G-quadruplex DNA was prepared similarly using 5′-Flu-telomeric DNA.
Successive amounts of G-quadruplex DNA (AGGG(TTAGGG)3, 1.44×10^−4 M) were added to 1.00 ml of each BQ (5×10^−6 M) in Tris-KCl buffer, pH 7.4. Solution was shacked well after each addition, incubated for 3 min at room temperature and its absorbance was scanned in the range 200-600 nm. Titration was stopped when no change in absorbance was observed. The experiment was reversed by adding successive amounts of the each BQ (1×10^−3 M) to 1.0 ml of 4×10^−6 M G-quadruplex DNA.
The molar ratio method based on measuring UV-Vis absorption was used for determining stoichiometry of G-quadruplex DNA interactions with BQs. A 1.00 ml BQs (5×10^−6 M) was titrated with telomere G-quadruplex (1.44×10^−4 M) in Tris-KCl buffer, pH 7.4. […] A plot of absorbance versus molar ratio [BQs]/[DNA] was constructed. […]
where Af, A and Ab are the absorbance at zero addition, after each addition and at saturation, respectively. […]

[5] = system: pancreatic cancer cells (MiaPaCa-2); test: MTT cell viability assay, MiaPaCa-2; format: cell-based, human; details: for IC50: Homo sapiens, MIA PaCa-2, MiaPaCa-2, 72 hrs
Procedure: as §1, §2, §3

[6] = system: lung cancer cells (H1299); test: MTT cell viability assay, H1299; format: cell-based, human; details: for inhibition in cell viability: H1299, 72 hours, BQs 1.0-25.0 μM, relative to control (DMSO)
Procedure: as §1, §2, §3

[7] = system: pancreatic cancer cells (L3.6pl); test: MTT cell viability assay, L3.6pl; format: cell-based, human
Procedure: as §1, §2, §3

[8] = system: examined cancer cell lines; test: MTT cell viability assay, cell line not given (panel); format: cell-based; details: Homo sapiens; cell line not specified
Procedure: as §1, §2, §3

[9] = system: breast cancer cells (MCF-7); test: MTT cell viability assay, MCF-7; format: cell-based, human; details: for loss of cell viability: MCF-7, 72 hours, BQs 1.0-25.0 μM, relative to control (DMSO)
Procedure: as §1, §2, §3

Compound: O=C1C=C(Nc2cccc(C(F)(F)F)c2)C(=O)C=C1Nc1cccc(C(F)(F)F)c1 [BQ1, 2,5-bis-(3-trifluoromethylanilino)-1,4-benzoquinone]
- IC50 [1]: 43.2 µM
- melting point: 280 to 282.5 °C
- Tm of G-quadruplex-BQ complex [2]: 75.5 °C
- ΔTm of G-quadruplex-BQ complex [2]: 7.5 °C
- Melting temperature shift (ΔTm) of ct-DNA on BQ binding [3]: 5.8 °C
- binding constant (K) towards G-quadruplex DNA [4]: 728000 M⁻¹

Compound: O=C1C=C(Nc2cc(F)c(F)c(F)c2)C(=O)C=C1Nc1cc(F)c(F)c(F)c1 [BQ2, 2,5-bis-(3,4,5-trifluoroanilino)-1,4-benzoquinone]
- melting point: > 350 °C

Compound: COc1ccc(NC2=CC(=O)C(Nc3ccc(OC)cc3)=CC2=O)cc1 [BQ3, 2,5-bis-(4-methoxylanilino)-1,4-benzoquinone]
- IC50 [5]: 7.68 µM
- melting point: 323 to 325 °C
- selectivity towards G-quadruplex over ct-DNA [2]: low selectivity
- ΔTm, G-quadruplex versus ct-DNA ([2]; stabilized both G-quadruplex and ct-DNA): ~0.2 °C
- Melting temperature shift (ΔTm) of ct-DNA on BQ binding [3]: 3.8 °C

Compound: O=C1C=C(Nc2ccc(F)cc2)C(=O)C=C1Nc1ccc(F)cc1 [BQ4, 2,5-bis-(4-fluoroanilino)-1,4-benzoquinone]
- melting point: > 350 °C
- IC50 ([6]; Homo sapiens, NCI-H1299, H1299, 72 hrs): 7.48 µM
- Tm of G-quadruplex-BQ complex [2]: 68.1 °C
- ΔTm of G-quadruplex-BQ complex [2]: 0.1 °C

Compound: O=C1C=C(Nc2ccccc2)C(=O)C=C1Nc1ccccc1 [BQ5, 2,5-bis-anilino-1,4-benzoquinone]
- loss of cell viability [1]: 27.25%
- IC50 [1]: 42.1 µM
- melting point: 342 to 345 °C
- selectivity towards G-quadruplex over ct-DNA ([2]; listed as BQS): 3.5 folds

Compound: O=C1C=C(NCCN2CCOCC2)C(=O)C=C1NCCN1CCOCC1 [BQ7, 2,5-bis((2-morpholinoethyl)amino)-1,4-benzoquinone]
- loss of cell viability [1]: 1.29%
- loss in cell viability ([5]; MiaPaCa-2, 72 hours, BQs 1.0-25.0 μM, relative to control (DMSO)): 7.53%
- melting point: 184 to 188 °C
- inhibition in cell viability [6]: 20.81%

Compound: O=C1C=C(NC2CCCC2)C(=O)C=C1NC1CCCC1 [BQ8, 2,5-bis-(cyclopentylamino)-1,4-benzoquinone]
- inhibition in cell viability ([7]; 72 hours, BQs 1.0-25.0 μM, relative to control (DMSO)): 26.97%
- melting point: 289 to 291 °C

Compound: O=C1C=C(NCCN2CCCC2)C(=O)C=C1NCCN1CCCC1 [BQ9, 2,5-bis((2-(pyrrolidin-1-yl)ethyl)amino)-1,4-benzoquinone]
- IC50 [8]: < 10 µM
- melting point: 159 to 162 °C
- inhibition in cell viability [6]: 84.40%
- loss of cell viability [9]: 92.50%

Compound: O=C1C=C(NCc2ccc(C(F)(F)F)cc2)C(=O)C=C1NCc1ccc(C(F)(F)F)cc1 [BQ10, 2,5-bis-(4-trifluoromethylbenzylamino)-1,4-benzoquinone]
- IC50 [8]: < 10 µM
- melting point: 271 to 274 °C
- IC50 ([9]; Homo sapiens, MCF7, MCF-7, 72 hrs): 8.04 µM

Compound: O=C1C=C(NCc2ccc(F)cc2)C(=O)C=C1NCc1ccc(F)cc1 [BQ11, 2,5-bis-(4-fluorobenzylamino)-1,4-benzoquinone]
- IC50 [8]: < 10 µM
- IC50 [5]: 6.18 µM
- IC50 ([7]; Homo sapiens, 72 hrs): 9.67 µM
- melting point: 248 to 250 °C
- Tm of G-quadruplex-BQ complex [2]: lowest

Compound: COc1ccc(CNC2=CC(=O)C(NCc3ccc(OC)c(OC)c3)=CC2=O)cc1OC [BQ12, 2,5-bis-(3,4-dimethoxybenzylamino)-1,4-benzoquinone]
- melting point: 256.5 to 258.5 °C
- loss of cell viability [9]: 24.16%

Compound: O=C1C=C(NCc2ccccc2)C(=O)C=C1NCc1ccccc1 [BQ13, 2,5-bis-(benzylamino)-1,4-benzoquinone]
- melting point: 254.5 to 256 °C

Compound: O=C1C=C(NCc2cc(C(F)(F)F)cc(C(F)(F)F)c2)C(=O)C=C1NCc1cc(C(F)(F)F)cc(C(F)(F)F)c1 [BQ14, 2,5-bis-(3,5-ditrifluoromethylbenzylamino)-1,4-benzoquinone]
- melting point: 237 to 239 °C

— patent US20200010413A1, “Benzoquinone derivatives for treatment of cancer and methods of making the benzoquinone derivatives” (United Arab Emirates University, priority 2016, published 2020)
